One may read the IC50 as the concentration needed to halve the response being measured. What is called Kd is a measure of binding affinity in units of concentration.

The source of these data is patent publication US20250017889A1, “INHIBITORS OF P1B-TYPE ATPASES” (THE CURATORS OF THE UNIVERSITY OF MISSOURI, priority 2021, published 2025).

Series [1] deals with tyrosinase activity in B16 melanoma cells. The series is described as follows: Tyrosinase activity in wild type B16 melanoma cells (L-DOPA to DOPAchrome), proxy for ATP7A inhibition. The series is classed as cell-based. The note with it: for IC50: Mus musculus, B16 cells. The text has this:
Tyrosinase is a cuproenzyme involved in melanogenesis that receives copper via ATP7A in the secretory pathway. […] Thus, reductions in tyrosinase activity in wild type B16 cells can be used as a proxy for inhibition of ATP7A. […]

The next series deals with T1, ATP7A (Homo sapiens, UniProt Q04656).
T1 construct: expressed in transfected cells; host or cells: HEK293 (detergent-free lysate)
T1 sequence (Q04656 1-1500): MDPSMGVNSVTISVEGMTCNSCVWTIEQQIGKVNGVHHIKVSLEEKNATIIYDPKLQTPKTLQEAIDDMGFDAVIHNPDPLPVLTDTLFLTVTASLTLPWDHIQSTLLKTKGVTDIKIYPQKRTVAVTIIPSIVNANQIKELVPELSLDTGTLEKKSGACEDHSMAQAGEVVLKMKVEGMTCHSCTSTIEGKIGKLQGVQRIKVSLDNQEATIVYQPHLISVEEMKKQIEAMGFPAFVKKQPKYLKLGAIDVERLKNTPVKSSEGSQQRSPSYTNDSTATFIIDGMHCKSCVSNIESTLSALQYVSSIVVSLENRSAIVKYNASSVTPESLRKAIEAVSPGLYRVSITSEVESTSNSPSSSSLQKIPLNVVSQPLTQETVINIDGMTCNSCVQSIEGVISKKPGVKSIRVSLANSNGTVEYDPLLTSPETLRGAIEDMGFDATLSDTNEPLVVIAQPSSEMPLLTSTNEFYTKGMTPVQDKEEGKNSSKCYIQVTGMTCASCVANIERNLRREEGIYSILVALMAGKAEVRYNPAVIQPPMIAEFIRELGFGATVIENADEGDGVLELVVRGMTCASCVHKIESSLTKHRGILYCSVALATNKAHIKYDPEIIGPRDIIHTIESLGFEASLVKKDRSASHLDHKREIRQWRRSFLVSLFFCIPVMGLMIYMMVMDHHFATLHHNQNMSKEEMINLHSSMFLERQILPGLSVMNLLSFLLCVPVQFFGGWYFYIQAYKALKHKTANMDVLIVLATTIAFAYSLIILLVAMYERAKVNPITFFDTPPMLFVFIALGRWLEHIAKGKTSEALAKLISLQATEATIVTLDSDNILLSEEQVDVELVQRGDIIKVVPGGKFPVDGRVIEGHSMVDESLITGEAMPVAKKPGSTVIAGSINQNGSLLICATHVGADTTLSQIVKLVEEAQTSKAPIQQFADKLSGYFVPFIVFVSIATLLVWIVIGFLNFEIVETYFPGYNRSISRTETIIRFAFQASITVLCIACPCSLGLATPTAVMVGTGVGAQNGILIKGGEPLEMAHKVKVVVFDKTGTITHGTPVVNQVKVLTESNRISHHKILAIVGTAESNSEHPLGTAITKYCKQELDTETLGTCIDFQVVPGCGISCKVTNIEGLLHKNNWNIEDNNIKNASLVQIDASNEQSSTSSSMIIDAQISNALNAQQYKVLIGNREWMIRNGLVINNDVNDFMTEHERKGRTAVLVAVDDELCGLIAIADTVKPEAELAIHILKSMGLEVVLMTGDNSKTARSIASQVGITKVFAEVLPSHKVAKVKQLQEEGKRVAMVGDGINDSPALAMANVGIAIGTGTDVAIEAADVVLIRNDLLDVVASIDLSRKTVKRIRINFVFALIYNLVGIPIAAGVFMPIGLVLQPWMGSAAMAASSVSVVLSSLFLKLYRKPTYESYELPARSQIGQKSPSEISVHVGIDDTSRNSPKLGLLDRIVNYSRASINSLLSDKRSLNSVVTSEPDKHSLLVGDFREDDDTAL
The series is described as follows: Microscale thermophoresis (MST) binding to GFP-ATP7A in HEK293 cell lysates. The note with it: for Kd: MST analysis, read-out: ATP7A Binding Affinity KD. On the technique in general: Microscale thermophoresis detects binding through changes in fluorescence in a small temperature gradient.

A further series deals with LOX activity. Put plainly: LOX activity secreted into conditioned media of cancer cells. The series is classed as cell-based. The note with it: 4T1 breast cancer cells, compared with MKV3.
Series [2] is described as follows: Cytotoxicity in B16 cells by MTT and crystal violet assays. As to conditions: mouse, B16 melanoma cells; B16 cells, MTT and crystal violet assays; read-out: half-maximal cytotoxic concentration (CC50). The series is classed as cell-based. The text has this: This is consistent with lower affinity of MKV1 for ATP7A (FIG. 6E).
A further series concerns GFP alone. The series is described as follows: Microscale thermophoresis (MST), GFP alone as negative control. In kind it is binding. The text has this: (§1) Coordinating residues D935 and E798 are predicted to bind copper during transport.
A further series addresses T2, ATP7B (Homo sapiens, UniProt P35670).
T2 construct: expressed in transfected cells; host or cells: HEK293 (detergent-free lysate)
T2 sequence (P35670 1-1465): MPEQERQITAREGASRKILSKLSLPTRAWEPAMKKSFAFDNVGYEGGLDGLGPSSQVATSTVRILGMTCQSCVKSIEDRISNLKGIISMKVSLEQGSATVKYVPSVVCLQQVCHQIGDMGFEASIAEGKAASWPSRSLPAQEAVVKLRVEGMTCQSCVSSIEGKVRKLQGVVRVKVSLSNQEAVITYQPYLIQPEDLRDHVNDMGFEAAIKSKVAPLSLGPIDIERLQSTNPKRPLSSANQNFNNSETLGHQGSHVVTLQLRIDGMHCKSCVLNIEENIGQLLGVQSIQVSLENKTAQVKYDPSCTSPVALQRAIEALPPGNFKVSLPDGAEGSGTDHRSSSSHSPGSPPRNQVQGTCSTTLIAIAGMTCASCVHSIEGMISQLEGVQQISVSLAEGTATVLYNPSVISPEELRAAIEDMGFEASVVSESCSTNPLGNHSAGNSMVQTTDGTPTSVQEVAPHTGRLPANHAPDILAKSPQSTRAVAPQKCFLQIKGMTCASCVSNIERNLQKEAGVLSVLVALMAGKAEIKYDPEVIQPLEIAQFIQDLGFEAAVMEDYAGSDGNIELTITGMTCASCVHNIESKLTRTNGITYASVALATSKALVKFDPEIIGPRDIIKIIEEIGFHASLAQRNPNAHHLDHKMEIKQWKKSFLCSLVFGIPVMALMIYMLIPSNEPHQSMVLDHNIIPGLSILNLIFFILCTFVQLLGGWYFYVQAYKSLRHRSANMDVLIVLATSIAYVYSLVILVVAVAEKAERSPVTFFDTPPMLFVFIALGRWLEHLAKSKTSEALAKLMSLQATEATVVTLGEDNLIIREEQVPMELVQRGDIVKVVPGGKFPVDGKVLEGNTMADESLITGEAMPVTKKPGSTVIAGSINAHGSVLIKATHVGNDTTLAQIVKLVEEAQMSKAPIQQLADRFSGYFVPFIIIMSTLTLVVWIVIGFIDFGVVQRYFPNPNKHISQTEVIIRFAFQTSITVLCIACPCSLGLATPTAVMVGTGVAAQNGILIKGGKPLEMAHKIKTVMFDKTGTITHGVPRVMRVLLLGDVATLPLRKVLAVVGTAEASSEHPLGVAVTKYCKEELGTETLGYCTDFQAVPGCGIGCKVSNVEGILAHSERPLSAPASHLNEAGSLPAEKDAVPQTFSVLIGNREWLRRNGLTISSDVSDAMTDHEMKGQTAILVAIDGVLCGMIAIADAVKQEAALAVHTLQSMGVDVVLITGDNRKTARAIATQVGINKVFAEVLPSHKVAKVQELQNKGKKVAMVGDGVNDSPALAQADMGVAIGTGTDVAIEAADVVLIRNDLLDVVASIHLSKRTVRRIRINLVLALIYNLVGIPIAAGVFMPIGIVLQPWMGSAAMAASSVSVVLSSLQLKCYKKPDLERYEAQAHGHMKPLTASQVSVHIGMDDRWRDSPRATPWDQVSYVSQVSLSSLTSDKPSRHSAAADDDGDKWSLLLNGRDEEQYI
The series is described as follows: Microscale thermophoresis (MST) binding to GFP-ATP7B in HEK293 cell lysates. The note with it: MST.
Excerpt: as §1

Series [3] deals with ΔcopA/ΔcopB strain of S. aureus. The series is described as follows: Growth of copper-sensitive ΔcopA/ΔcopB mutant strain of S. aureus. In kind it is cell-based, Staphylococcus aureus. As to conditions: copper alone 50 μM. The method, then: Methicillin-resistant Staphylococcus aureus (MRSA) is a human pathogen that expresses two Cu-transporting P1B-type ATPases, CopA and CopB, which are known to enhance the virulence of this bacterium. 19A illustrates CopA and CopB copper exporters at the plasma membrane of S. aureus. […] The growth of the ΔcopA/ΔcopB strain was inhibited by approximately 50% when copper alone (50 μM) was added to the culture medium.
Wild type MRSA expresses two copper-exporting P1B-type ATPases, CopA and CopB that are required for copper tolerance (FIG. 19A). […] The same experiment was performed using MRSA in which both CopA and CopB genes were deleted (ΔcopA/ΔcopB). Consistent with the known role of CopA and CopB in copper tolerance, the growth of the ΔcopA/ΔcopB strain was inhibited by approximately 50% when copper alone (50 μM) was added to the culture medium (FIG. 19C).

`O=C(CC(=S)Nc1ccccc1Cl)Nc1ccccc1` [MKV1A] registered an IC50 in series [1] of 21.559 ± 0.005 µM. Further, the Kd at ATP7A is 0.363 ± 0.024 µM.

For the compound `N#CC(C(=O)Nc1ccccc1)C(=S)Nc1ccccc1` (stereo not drawn) [MKV1B], in series [1], half-maximal inhibition (IC50) required 21.87 ± 0.129 µM. Also, the Kd on ATP7A is 0.354 ± 0.021 µM.

In turn, `O=C(CC(=S)Nc1ccccc1)Nc1cccc(C(F)(F)F)c1` [MKV1C] came in with an IC50 in series [1] of 16.18 ± 0.023 µM. Further, the Kd at ATP7A is 0.43 ± 0.016 µM.

In the case of `O=C(CC(=S)Nc1ccccc1Cl)Nc1cccc(C(F)(F)F)c1` [MKV1D], the IC50 in series [1] was 12.222 ± 0.005 µM. Also, the Kd on ATP7A worked out at 0.708 ± 0.042 µM.

`N#CC(C(=O)Nc1ccccc1)C(=S)Nc1ccccc1Cl` (stereo not drawn) [MKV1E] displayed an IC50 in series [1] of 11.7 ± 0.001 µM. Also, the Kd on ATP7A was determined as 1.06 ± 0.054 µM.

Compound `N#CC(C(=O)Nc1cccc(C(F)(F)F)c1)C(=S)Nc1ccccc1` (stereo not drawn) [MKV1F] registered an IC50 in series [1] of 8.719 ± 0.014 µM. The Kd on ATP7A amounted to 1 ± 0.059 µM.

For the compound `O=C(CC(=S)Nc1ccccc1)Nc1ccccc1` [MKV1], in series [1] (50 μM, 24 h, wild type B16 melanoma cells), the “in situ tyrosinase activity” value is on record as “loss of tyrosinase activity”. This compound had an IC50 in series [1] of 29.98 ± 0.029 µM. For the same compound, in the series on LOX activity, the LOX activity entry was “inhibited LOX activity but only at higher concentrations than for MKV3”. Moreover, the CC50 in series [2] is roughly 270 µM. In addition, the “binding to GFP alone” value in the series with GFP alone was “not to GFP alone”. Further, the “fold difference in affinity for ATP7A between MKV3 (higher) and MKV1 (lower)” value on ATP7A (MST) was “approximately 10 fold”. Also, the Kd at ATP7A was 1.83 ± 0.151 µM. In addition, the “fold difference in affinity for ATP7B between MKV3 (higher) and MKV1 (lower)” value at ATP7B was “approximately 10 fold”.

copper: in series [3], the “inhibition of growth of the ΔcopA/ΔcopB strain” value is recorded as “approximately 50%”.
